Like-named read-outs stand apart in the source and are kept apart here.
Columns and labels:
Assay type in all cases: cell-based
[1] = system: rat DRG neurons; assay: Current-clamp recording of cultured DRG neurons; settings: 25 µM
Procedure: For dorsal root ganglion (DRG) neuronal cultures, ganglia were dissected from 2–5 day-old Sprague-Dawley rats killed by decapitation. DRGs were placed in Hank's balanced saline solution (HBSS) and prepared by enzymatic dissociation. Briefly, after 30 min incubation in 5 mg/ml dispase, 2 mg/ml collagenase type 1A and 0.1 mg/ml DNase (Invitrogen/Gibco, Carlsbad, CA) in Ca^2+ and Mg^2+-free HBSS, the ganglia were mechanically triturated with a fire-polished glass Pasteur pipette. The ganglia were then centrifuged for 5 min at 80xg and resuspended in DMEM supplemented with 2 mM L-glutamine, 16.5 mM NaHCO3, 6 g/l glucose, 5 ml penicillin/streptomycin and 10% fetal calf serum. For electrophysiological recording, dissociated neurons were plated on 13 mm glass coverslips, previously coated with poly-D-lysine (1 mg/ml) and laminin (10 µg/ml) and used at 1–2 days in culture.
For current-clamp recordings in primary cultured neurons, the patch pipettes were filled with (in mM): 135 KCl, 1 K2ATP, 1 MgATP, 2 EGTA, 1.1 CaCl2, 5 glucose, 10 HEPES, adjusted with KOH at pH 7.4 (315 mOsm). The external solution contained (in mM): 150 NaCl, 2.5 KCl, 2 CaCl2, 2 MgCl2, 15 glucose, 10 HEPES, adjusted with NaOH at pH 7.4 (325 mOsm). Recordings were sampled at 5 kHz and filtered at 2 KHz via a 4-pole Bessel low pass filter. A liquid junction potential of about −15.6 mV was measured between the intracellular and saline solutions and corrected on-line. For evoking spike discharges, 75–200 pA square depolarizing current pulses were injected into neurons for 400 ms. For rheobase current measurements, 100–1100 pA square depolarizing current pulses were injected into neurons for 2 ms.

[2] = biological target: T1, Kv7.2/3 K+ channels (M-channels) (Homo sapiens, UniProt O43525+O43526); assay: Whole-cell patch-clamp of recombinant Kv7.2/3 channels in CHO cells; settings: for V50 of Kv7.2/3 activation: n = 5; for fold increase in Kv7.2/3 current amplitude: step −90 to −50 mV
T1 construct: expressed in transfected cells; host or cells: CHO cells
Procedure: Chinese hamster ovary (CHO) cells were grown in Dulbecco's modified Eagle's medium (DMEM) supplemented with 2 mM glutamine, 10% fetal calf serum and antibiotics. Briefly, 40,000 cells seeded on poly-D-lysine-coated glass coverslips (13 mm diameter) in a 24-multiwell plate were transfected with pIRES-CD8 (0.5 µg) as a marker for transfection, and with Kv7.2 (0.5 µg) and Kv7.3 (0.5 µg). For electrophysiology, transfected cells were visualized approximately 40 hours following transfection, using anti-CD8 antibody-coated beads. Transfection was performed using Fugene 6 (Roche, Indianapolis IN, USA) according to the manufacturer's protocol.
Voltage-clamp recordings in CHO cells were performed, using the whole-cell configuration of the patch-clamp technique. Signals were amplified using an Axopatch 200B patch-clamp amplifier (Molecular Devices, Sunnyvale, CA), sampled at 2 kHz and filtered at 800 Hz via a 4-pole Bessel low pass filter. […] The patch pipettes were pulled from borosilicate glass (Warner Instrument Corp, USA) with a resistance of 2–5 MΩ. For K^+ current recordings in CHO cells, the intracellular pipette solution contained (in mM): 130 KCl, 1 MgCl2, 5 K2ATP, 5 EGTA, 10 HEPES, adjusted with KOH to pH 7.4 (290 mOsm). The extracellular solution contained (in mM): 140 NaCl, 4 KCl, 1.8 CaCl2, 1.2 MgCl2, 11 glucose, 5.5 HEPES, adjusted with NaOH to pH 7.4 (310 mOsm). Series resistances (3–13 MΩ) were compensated (75–90%) and periodically monitored.
Data analysis was performed using the Clampfit program (pClamp 9.2, Molecular Devices), Microsoft Excel (Microsoft) and Prism 4.0 (GraphPad). Chord conductance (G) was calculated by using the following equation: [drawing 1] where I corresponds to the current amplitude measured at the end of the pulse and Vrev, the calculated reversal potential. G was estimated at various test voltages V and then, normalized to a maximal conductance value, Gmax. Activation curves were fitted by one Boltzmann distribution: [drawing 2] where V50 is the voltage at which the current is half-activated and s is the slope factor. All data were expressed as mean±SEM. Statistically significant differences were assessed by Student's t-test. Analysis of sEPSCs and sIPSCs was done using the Clampfit program (pClamp 9.2, Molecular Devices) and included evaluation of the individual events as well as the average event amplitude and the integral of the event (total charge transfer).

[3] = system: COX enzymes (CT26 mouse colon adenocarcinoma cells); assay: COX inhibition, PGE2 production in CT26 cells
From the text: In addition, the aromatic rings of the diphenylamine moiety were substituted with different electron donating or withdrawing groups. In a first screen, two parameters were checked: (a) the non-selective inhibition of COX-1/COX-2 enzyme activities, measured by the production of PGE2 in cultured mouse colon adenocarcinoma (CT26) and mouse Lewis lung carcinoma cells (D122) cells; (b) the M-channel activity, measured by the heterologous coexpression of Kv7.2 and Kv7.3 subunits in Chinese hamster ovary (CHO) cells.
Mouse colon adenocarcinoma CT26 and mouse Lewis lung carcinoma D122 cells were grown in DMEM (D122) or RPMI (CT26) supplemented with 10% fetal calf serum, 4% glutamine, 1% penicillin-streptomycin-nystatin and 3% non essential amino acids (D122) and maintained in a humidified 37°C incubator with 5% CO2. For the COX assays, cells were grown onto 24 multiwell plates. Before the assay, cells were washed with serum-free medium; then tested compounds were added to the medium and incubated for 30 min at 37°C after which 30 µM arachidonic acid was added and incubated for additional 20 min. At the end of the incubations, 10 µM indomethacin was added to stop the reaction and medium was transferred to another 24 multiwell plate for measuring PGE2 production by radioimmunoassay (DuPont-NEN; Boston, MA) according to manufacturer protocol. Protein determination was assayed on scraped cells and was used to normalize the amount of PGE2 production. Assays with purified ovine COX-1 and human recombinant COX-2 were performed using the COX inhibitor screening assay (Cayman chemical company, Ann Arbor, MI), according to manufacturer protocol.

T1 sequence (O43526 whole entry): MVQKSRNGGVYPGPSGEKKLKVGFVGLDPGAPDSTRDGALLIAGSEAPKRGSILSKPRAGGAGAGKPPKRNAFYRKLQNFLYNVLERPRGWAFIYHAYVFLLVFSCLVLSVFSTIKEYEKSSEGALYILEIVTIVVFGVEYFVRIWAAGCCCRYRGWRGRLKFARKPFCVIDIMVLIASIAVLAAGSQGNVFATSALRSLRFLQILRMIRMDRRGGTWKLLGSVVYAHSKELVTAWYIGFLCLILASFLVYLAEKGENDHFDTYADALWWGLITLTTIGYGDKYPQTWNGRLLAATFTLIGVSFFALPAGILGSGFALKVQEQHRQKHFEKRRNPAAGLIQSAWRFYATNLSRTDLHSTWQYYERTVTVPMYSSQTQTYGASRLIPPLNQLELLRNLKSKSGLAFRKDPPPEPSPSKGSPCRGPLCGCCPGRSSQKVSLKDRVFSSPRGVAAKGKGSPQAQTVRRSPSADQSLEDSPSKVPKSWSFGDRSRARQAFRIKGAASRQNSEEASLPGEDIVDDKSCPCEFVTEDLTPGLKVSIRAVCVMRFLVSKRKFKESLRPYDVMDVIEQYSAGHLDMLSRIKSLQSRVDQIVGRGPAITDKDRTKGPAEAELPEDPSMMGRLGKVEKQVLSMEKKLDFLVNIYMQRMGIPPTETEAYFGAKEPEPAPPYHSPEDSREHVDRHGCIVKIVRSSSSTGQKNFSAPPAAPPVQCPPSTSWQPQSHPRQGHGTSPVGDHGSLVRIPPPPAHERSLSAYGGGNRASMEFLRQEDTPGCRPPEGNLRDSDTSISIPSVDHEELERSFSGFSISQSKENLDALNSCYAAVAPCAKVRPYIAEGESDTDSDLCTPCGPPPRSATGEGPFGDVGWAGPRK
T1 sequence (O43525 whole entry): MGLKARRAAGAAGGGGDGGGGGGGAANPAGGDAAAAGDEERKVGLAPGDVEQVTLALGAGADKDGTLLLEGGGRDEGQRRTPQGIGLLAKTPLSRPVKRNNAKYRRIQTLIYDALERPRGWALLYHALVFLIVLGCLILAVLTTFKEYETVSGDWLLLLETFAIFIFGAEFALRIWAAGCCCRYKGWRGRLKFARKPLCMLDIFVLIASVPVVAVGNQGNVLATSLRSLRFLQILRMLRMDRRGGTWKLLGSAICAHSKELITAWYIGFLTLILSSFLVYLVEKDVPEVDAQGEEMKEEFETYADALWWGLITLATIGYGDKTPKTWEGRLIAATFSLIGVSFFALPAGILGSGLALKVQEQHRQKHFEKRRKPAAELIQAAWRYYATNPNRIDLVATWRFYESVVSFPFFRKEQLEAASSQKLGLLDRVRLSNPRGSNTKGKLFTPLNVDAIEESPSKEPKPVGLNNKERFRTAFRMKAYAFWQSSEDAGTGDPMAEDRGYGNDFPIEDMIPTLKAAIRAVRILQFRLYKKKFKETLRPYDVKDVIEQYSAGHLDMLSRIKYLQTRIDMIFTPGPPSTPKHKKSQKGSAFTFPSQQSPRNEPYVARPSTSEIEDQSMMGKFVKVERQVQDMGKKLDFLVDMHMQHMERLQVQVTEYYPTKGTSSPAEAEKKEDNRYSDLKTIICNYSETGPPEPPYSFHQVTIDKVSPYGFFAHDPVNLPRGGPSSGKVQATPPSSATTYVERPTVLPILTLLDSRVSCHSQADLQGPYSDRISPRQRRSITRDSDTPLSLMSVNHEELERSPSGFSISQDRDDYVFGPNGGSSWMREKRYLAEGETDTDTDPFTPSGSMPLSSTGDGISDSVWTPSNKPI

O=C(Cc1cc([N+](=O)[O-])ccc1Nc1c(Cl)cccc1Cl)OCCO [Compound 15]
hyperpolarization of resting membrane potential, DRG neurons [1]: −8.3±0.2 mV | resting membrane potential of DRG neurons after exposure [1]: −69.0±0.3 mV | rheobase current to generate a single spike, DRG neurons ([1]; 2 ms injection): 577±38 pA | number of evoked action potentials, DRG neurons ([1]; depolarizing current for 400 ms): 0.8±0.3 | left-shift of Kv7.2/3 activation curve ([2]; 10 µM): −11 mV | V50 of Kv7.2/3 activation ([2]; 10 µM): −43.6±9.0 mV | fold increase in Kv7.2/3 current amplitude ([2]; 10 µM): 3.2 fold | activation kinetics t1/2 of Kv7.2/3 ([2]; 25 µM, at −20 mV): 0.171 ± 0.029 s | deactivation time constant τdeact of Kv7.2/3 ([2]; 25 µM, tail currents at −60 mV): 284 ± 43 ms | left-shift of Kv7.2/3 activation curve ([2]; 50 µM): −21 mV | V50 of Kv7.2/3 activation ([2]; 50 µM): −53.5±9.3 mV | fold increase in Kv7.2/3 current amplitude ([2]; 50 µM): 9.1 fold | left-shift of Kv7.2/3 activation curve ([2]; 200 µM): −31 mV | V50 of Kv7.2/3 activation ([2]; 200 µM): −63.1±2.0 mV | ΔV50 (mV), left-shift in half-activation potential ([2]; Kv7.2/3 in CHO cells): −31.0 mV | M-channels (Kv7.2/Kv7.3) effect (opener / blocker / inactive) ([2]; Kv7.2 and Kv7.3 coexpressed in CHO cells): opener | EC50 ([2]; concentration-dependent left-shift ΔV50, sigmoidal fit, read-out: M-channel opener potency EC50): 22000 nM | IC50 ([3]; average of two experiments in triplicate, read-out: COX inhibition (IC50, µM) CT26): 0.048 µM | IC50 ([3]; read-out: COX inhibition IC50, typical experiment (Figure 1)): 0.069 µM
